These results are taken from article PMC12048343, “Discovery of a small molecule secreted clusterin enhancer that improves memory in Alzheimer’s disease mice” (npj Drug Discovery, 2025).

The test system of one data set is HEPG2 cells. The data set is described as follows: Cytotoxicity, MultiTox-Fluor (hepatotoxicity). The format is cell-based. Particulars: HEPG2, up to 50 µM.
Data set [1] deals with humanin (HN) expression in SH-SY5Y cells. Briefly: Humanin ELISA in SH-SY5Y cell lysate. The data set is classed as cell-based, human. To be noted: 200 nM, 24 h. The procedure:
(§1) Additional assays: The Aβ1-42 ELISA assay was performed on hippocampus brain homogenate according to the manufacturer’s protocol (Fisher KHB3441). Humanin in cell culture lysate was quantify by ELISA assay, according to the manufacturer’s protocol (MyBioSourc Cat# MBS7607247). SirT1 in cell culture lysate was quantify using AlphaLISA. Cell lysate (2 μL) was added to a 384-well proxy plate preloaded with 2 µL anti-SiRT1 antibody mixture (ABCAM catalog AB110304, biotinylated (10 nM) and ABCAM catalog AB104833, acceptor bead conjugated (50 µg/mL, Cat#6772001, Perkin Elmer)) was added and incubated at room temperature for 1 hour. AlphaScreen Streptavidin Donor beads (2 µL, Cat#6760002S, Perkin Elmer) were added, incubated for an additional 30 min in the dark, and the plate was read in an Envision plate reader.
(In general: In an ELISA, binding on a coated surface is turned into a signal by an enzyme label.)

The test system of a further data set is SH-SY5Y cells. The data set is described as follows: Cytotoxicity, MultiTox-Fluor (neurotoxicity). To be noted: up to 50 µM. The data set is classed as cell-based, human.
Data set [2] deals with 3xTg-AD murine model of AD. The data set is described as follows: Chronic 6-week oral study in 3xTg-AD mice (hippocampus biomarkers, proteomics). The format is in vivo, mouse. To be noted: oral 15 mg/kg BID, 6 weeks, vs vehicle. The procedure: Brain tissue was homogenized and diluted to a protein concentration of 50 ng/mL. The Mouse Clusterin ELISA Kit (Cat#ab199079, Abcam) was performed according to the manufacturer’s protocol.
Hippocampal tissue was sonicated in TPER buffer containing 1x protease and phosphatase inhibitors (Fisher catalog # 78429) on ice. Samples were centrifuged at 16000xg for 10 min at 4 degrees C. A BCA protein quantification assay was performed on each sample in duplicate. Aliquots of 40 uL were stored in the -80 freezer.
A sample of brain homogenate (8.8 mg/mL) was tested at 10 dilutions using the Tau AlphaLISA (Revvity Cat#AL271C) (32, 64, 128, 256, 512, 1024, 2048, 4096, 8192, 16384-fold) and, separately, the anti-tau phosphor AT8 and S396 (Fisher catalogs MN1020B and 44-752 G, respectively) antibodies (2, 4, 8, 16, 32, 64, 128, 256, 512, 1024-fold). AlphaLISA assays were by loading 2 µL of the anti-tau acceptor bead mixed with anti-tau or anti-ptau biotinylate antibodies in the 384-well plate, then 2 uL sample was loaded and incubated for 1 h at room temperature. AlphaScreen Streptavidin Donor beads (2 µL, Cat#6760002S, Perkin Elmer) were added, incubated for an additional 30 minutes in the dark, and the plate was read in an Envision plate reader.
as §1
All procedures were performed in accordance with protocols approved by the UCLA Institutional Animal Care and Use Committee (IACUC) and guidelines of the NIH. Mouse strains used were C57BL/6 J (Black 6, Jackson Laboratory; JAX stock #000564). All non-AD mice were 4 to 5 mo old at the time of the experiments. […]

Another data set addresses hERG potassium channel (Homo sapiens, UniProt Q12809). The data set is described as follows: hERG potassium channel inhibition assay.
For a further data set, the system named is HEK 293 T cells. The data set is described as follows: Cytotoxicity, MultiTox-Fluor (nephrotoxicity). The format is cell-based. To be noted: up to 50 µM.
A further data set concerns SH-SY5Y neuronal cells. Briefly: Oxygen consumption rate in SH-SY5Y cells. The format is cell-based, human. To be noted: 24 h, 8, 40 and 200 nM, dose-dependent.

hERG potassium channel, sequence (Q12809 whole entry): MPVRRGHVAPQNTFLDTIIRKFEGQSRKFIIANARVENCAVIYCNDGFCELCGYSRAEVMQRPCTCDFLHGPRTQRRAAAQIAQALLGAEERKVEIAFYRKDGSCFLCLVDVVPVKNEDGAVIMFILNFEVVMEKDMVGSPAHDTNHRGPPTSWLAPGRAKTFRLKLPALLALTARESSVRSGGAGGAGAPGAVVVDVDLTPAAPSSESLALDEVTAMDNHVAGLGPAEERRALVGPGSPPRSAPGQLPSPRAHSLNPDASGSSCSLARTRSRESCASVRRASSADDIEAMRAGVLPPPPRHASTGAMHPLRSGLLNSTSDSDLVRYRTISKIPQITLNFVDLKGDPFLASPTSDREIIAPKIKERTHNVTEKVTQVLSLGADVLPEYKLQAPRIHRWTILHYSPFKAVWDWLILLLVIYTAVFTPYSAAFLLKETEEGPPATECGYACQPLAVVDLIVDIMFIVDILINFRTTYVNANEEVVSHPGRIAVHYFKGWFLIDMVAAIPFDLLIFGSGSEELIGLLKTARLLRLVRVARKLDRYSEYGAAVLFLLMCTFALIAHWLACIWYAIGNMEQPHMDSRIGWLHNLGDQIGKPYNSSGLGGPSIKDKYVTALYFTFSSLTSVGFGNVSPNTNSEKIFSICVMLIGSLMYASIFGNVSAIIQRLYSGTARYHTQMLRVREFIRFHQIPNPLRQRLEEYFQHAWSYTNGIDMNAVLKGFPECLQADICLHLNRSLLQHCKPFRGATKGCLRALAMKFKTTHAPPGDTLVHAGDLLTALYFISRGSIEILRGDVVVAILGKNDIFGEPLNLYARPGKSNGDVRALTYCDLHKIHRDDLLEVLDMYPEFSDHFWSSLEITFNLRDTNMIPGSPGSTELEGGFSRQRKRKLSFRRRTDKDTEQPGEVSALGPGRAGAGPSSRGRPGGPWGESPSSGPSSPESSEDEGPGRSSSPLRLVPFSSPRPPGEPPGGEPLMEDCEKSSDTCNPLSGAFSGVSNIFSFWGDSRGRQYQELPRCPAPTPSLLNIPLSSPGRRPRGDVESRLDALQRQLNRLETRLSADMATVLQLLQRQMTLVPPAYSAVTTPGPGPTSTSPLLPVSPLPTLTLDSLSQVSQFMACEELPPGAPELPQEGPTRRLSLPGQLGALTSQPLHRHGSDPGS
From the text for HEK 293 T cells: (§2) Cell viability and toxicity were simultaneously assessed using the MultiTox-Fluor Multiplex Cytotoxicity Assay (Cat# PRG9200, Fisher Scientific) according to the manufacturer’s protocol.
From the text for HEPG2 cells: as §2

As to `Cc1sc2c(c1C)C(c1ccc(Cl)cc1)=N[C@@H](CC(=O)OC1CC1)c1nnc(C)n1-2` [DDL-357], the Ctox with HEPG2 cells is reported as ≥ 50 µM. For the same compound, the “humanin (HN) expression” value in data set [1] is on record as “significantly increased expression”. Moreover, in the data set on SH-SY5Y cells, the Ctox is ≥ 50 µM. In data set [2] (hippocampus), the “reduction of tau phosphorylation at Ser396 (p-tau/total tau)” value was “significant” and the “tau phosphorylation at Ser202/Thr205 (p-tau/total tau)” value is “lower, but not significantly so”. In data set [2], the “Aβ1-42 levels in brain” value was “the differences were not significant” and the “sCLU levels in brain” value is recorded as “the differences were not significant”. Moreover, the EC50 at hERG potassium channel is > 100 µM. In addition, in the data set with HEK 293 T cells, the Ctox is on record as ≥ 50 µM. Further, the oxygen consumption rate entry in the data set on SH-SY5Y neuronal cells is “increased the oxygen consumption rate”.

In general, EC50 refers to the concentration that produces a half-maximal response. A higher EC50 goes with weaker potency.
